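1) Cells in 96-well plates. 2) Compound, 48 h, 5 concentrations. 3) Linear interpolation between surrounding doses. 4) Unreached endpoint = highest concentration. Abbreviation: GI50, concentration required for 50% inhibition of growth. TGI denotes the concentration required for complete inhibition of growth.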
How the values were obtained:
Test in all cases: inhibition of tumour cell growth, NCI panel, 48 h
K-562 leukemia = system: K-562 leukemia
NCI-H226 lung = system: NCI-H226 lung
OVCAR-3 ovarian = system: OVCAR-3 ovarian
OVCAR-4 ovarian = system: OVCAR-4 ovarian
SF-268 CNS = system: SF-268 CNS
IGROV1 ovarian = system: IGROV1 ovarian
A498 renal = system: A498 renal
A549 NSCLC = system: A549 NSCLC
CCRF-CEM leukemia = system: CCRF-CEM leukemia
U251 CNS = system: U251 CNS
TK-10 renal = system: TK-10 renal
SN12C renal = system: SN12C renal
SNB-75 CNS = system: SNB-75 CNS
SR leukemia = system: SR leukemia
SNB-19 CNS = system: SNB-19 CNS
786-0 renal = system: 786-0 renal
HS 578T breast = system: HS 578T breast
CAKI-1 renal = system: CAKI-1 renal
NCI-H460 lung = system: NCI-H460 lung
OVCAR-8 ovarian = system: OVCAR-8 ovarian
HOP-62 NSCLC = system: HOP-62 NSCLC
BT-549 breast = system: BT-549 breast
HL-60(TB) leukemia = system: HL-60(TB) leukemia
ACHN renal = system: ACHN renal
MDA-MB-435 = system: MDA-MB-435
NCI-H23 lung = system: NCI-H23 lung
SF-295 CNS = system: SF-295 CNS
MALME-3M melanoma = system: MALME-3M melanoma
NCI-H522 lung = system: NCI-H522 lung
UACC-62 melanoma = system: UACC-62 melanoma
SK-MEL-5 melanoma = system: SK-MEL-5 melanoma
HT29 colon = system: HT29 colon
COLO 205 colon = system: COLO 205 colon
T-47D breast = system: T-47D breast
MDA-MB-231 breast = system: MDA-MB-231 breast
DU-145 prostate = system: DU-145 prostate
PC-3 prostate = system: PC-3 prostate
MOLT-4 leukemia = system: MOLT-4 leukemia
SK-MEL-28 melanoma = system: SK-MEL-28 melanoma
SW-620 colon = system: SW-620 colon
KM12 colon = system: KM12 colon
HCT-15 colon = system: HCT-15 colon
NCI/ADR-RES ovarian = system: NCI/ADR-RES ovarian
M14 melanoma = system: M14 melanoma
HCC-2998 colon = system: HCC-2998 colon
UACC-257 melanoma = system: UACC-257 melanoma
SF-539 CNS = system: SF-539 CNS
RPMI-8226 leukemia = system: RPMI-8226 leukemia
SK-OV-3 ovarian = system: SK-OV-3 ovarian
OVCAR-5 ovarian = system: OVCAR-5 ovarian
MCF7 breast = system: MCF7 breast
HCT-116 colon = system: HCT-116 colon
UO-31 renal = system: UO-31 renal

## O=C1CCCC(=O)C1C(=O)c1ccc(C(F)(F)F)cc1[N+](=O)[O-]
K-562 leukemia
  GI50: > 100 µM
  TGI: > 100 µM
NCI-H226 lung
  GI50: > 100 µM
  TGI: > 100 µM
OVCAR-3 ovarian
  GI50: > 100 µM
  TGI: > 100 µM
OVCAR-4 ovarian
  GI50: > 100 µM
  TGI: > 100 µM
SF-268 CNS
  GI50: > 100 µM
  TGI: > 100 µM
IGROV1 ovarian
  GI50: > 100 µM
  TGI: > 100 µM
A498 renal
  GI50: > 100 µM
  TGI: > 100 µM
A549 NSCLC
  GI50: > 100 µM
  TGI: > 100 µM
CCRF-CEM leukemia
  GI50: > 100 µM
  TGI: > 100 µM
U251 CNS
  GI50: > 100 µM
  TGI: > 100 µM
TK-10 renal
  GI50: > 100 µM
  TGI: > 100 µM
SN12C renal
  GI50: > 100 µM
  TGI: > 100 µM
SNB-75 CNS
  GI50: > 100 µM
  TGI: > 100 µM
SR leukemia
  GI50: > 100 µM
  TGI: > 100 µM
SNB-19 CNS
  GI50: > 100 µM
  TGI: > 100 µM
786-0 renal
  GI50: > 100 µM
  TGI: > 100 µM
HS 578T breast
  GI50: > 100 µM
  TGI: > 100 µM
CAKI-1 renal
  GI50: > 100 µM
  TGI: > 100 µM
NCI-H460 lung
  GI50: > 100 µM
  TGI: > 100 µM
OVCAR-8 ovarian
  GI50: > 100 µM
  TGI: > 100 µM
HOP-62 NSCLC
  GI50: > 100 µM
  TGI: > 100 µM
BT-549 breast
  GI50: > 100 µM
  TGI: > 100 µM
HL-60(TB) leukemia
  GI50: > 100 µM
  TGI: > 100 µM
ACHN renal
  GI50: > 100 µM
  TGI: > 100 µM
MDA-MB-435
  GI50: > 100 µM
  TGI: > 100 µM
NCI-H23 lung
  GI50: > 100 µM
  TGI: > 100 µM
SF-295 CNS
  GI50: > 100 µM
  TGI: > 100 µM
MALME-3M melanoma
  GI50: > 100 µM
  TGI: > 100 µM
NCI-H522 lung
  GI50: > 100 µM
  TGI: > 100 µM
UACC-62 melanoma
  GI50: > 100 µM
  TGI: > 100 µM
SK-MEL-5 melanoma
  GI50: > 100 µM
  TGI: > 100 µM
HT29 colon
  GI50: > 100 µM
  TGI: > 100 µM
COLO 205 colon
  GI50: > 100 µM
  TGI: > 100 µM
T-47D breast
  GI50: > 100 µM
  TGI: > 100 µM
MDA-MB-231 breast
  GI50: > 100 µM
  TGI: > 100 µM
DU-145 prostate
  GI50: > 100 µM
  TGI: > 100 µM
PC-3 prostate
  GI50: > 100 µM
  TGI: > 100 µM
MOLT-4 leukemia
  GI50: > 100 µM
  TGI: > 100 µM
SK-MEL-28 melanoma
  GI50: > 100 µM
  TGI: > 100 µM
SW-620 colon
  GI50: > 100 µM
  TGI: > 100 µM
KM12 colon
  GI50: > 100 µM
  TGI: > 100 µM
HCT-15 colon
  GI50: > 100 µM
  TGI: > 100 µM
NCI/ADR-RES ovarian
  GI50: > 100 µM
  TGI: > 100 µM
M14 melanoma
  GI50: > 100 µM
  TGI: > 100 µM
HCC-2998 colon
  GI50: > 100 µM
  TGI: > 100 µM
UACC-257 melanoma
  GI50: > 100 µM
  TGI: > 100 µM
SF-539 CNS
  GI50: > 100 µM
  TGI: > 100 µM
RPMI-8226 leukemia
  GI50: > 100 µM
  TGI: > 100 µM
SK-OV-3 ovarian
  GI50: > 100 µM
  TGI: > 100 µM
OVCAR-5 ovarian
  GI50: > 100 µM
  TGI: > 100 µM
MCF7 breast
  GI50: > 100 µM
  TGI: > 100 µM
HCT-116 colon
  GI50: > 100 µM
  TGI: > 100 µM
UO-31 renal
  GI50: > 100 µM
  TGI: > 100 µM
